Here are results for four substances from EP0310585B1, “Octapeptide inhibitors of myristoylating enzymes” (WASHINGTON UNIVERSITY, priority 1987, dated 1989).

Where no end group is shown, it is not given here.

Experiment [1] deals with T1, N-myristoylglycylpeptide synthetase (Saccharomyces cerevisiae, UniProt P14743).
T1 construct: A protease-deficient strain of Saccharomyces cerevisiae, JR153 [Hemmings et al., Proc. Natl. Acad. Sci. USA 78, 435-439 (1981)], was used as a source of N-myristoylglycylpeptide synthetase; endogenous in cells; host or cells: S. cerevisiae strain JR153, crude membrane pellet of cell lysate
T1 sequence (P14743 1-455): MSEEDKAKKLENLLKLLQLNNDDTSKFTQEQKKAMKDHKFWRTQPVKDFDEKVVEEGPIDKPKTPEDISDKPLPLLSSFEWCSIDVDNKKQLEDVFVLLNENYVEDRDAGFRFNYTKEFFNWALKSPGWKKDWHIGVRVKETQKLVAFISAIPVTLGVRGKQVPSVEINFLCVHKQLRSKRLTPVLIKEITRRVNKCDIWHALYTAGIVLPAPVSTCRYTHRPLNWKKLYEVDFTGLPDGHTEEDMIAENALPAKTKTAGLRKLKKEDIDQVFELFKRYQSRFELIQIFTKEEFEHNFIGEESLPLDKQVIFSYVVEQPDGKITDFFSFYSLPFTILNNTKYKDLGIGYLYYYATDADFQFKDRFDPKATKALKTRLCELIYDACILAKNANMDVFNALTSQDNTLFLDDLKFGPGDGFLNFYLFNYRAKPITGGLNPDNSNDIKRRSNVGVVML
Nature of the experiment: Assay for N-myristoylglycylpeptide synthetase activity, crude yeast membrane fractions (Table I). Type of experiment: biochemical. The settings on record: Test 3: + 1 mM peptide, 18 µM peptide substrate GlyAsnAlaAlaAlaAlaArgArg, control 26.7. How it is done: Preparation of yeast extract for the assay of N-myristoylglycylpeptide synthetase activity. Yeast cultures were grown as described above to O.D. 660 nm of 1 to 3. Cells from 40 ml of culture were collected by centrifugation at 4°C at 7600 x g for 10 minutes. The supernatant was decanted, the cell pellet was resuspended by pipetting into 1 ml of cold 10 mM Tris, pH 7.4, transferred to a 1.5 ml conical polypropylene centrifuge tube, and the cells were then repelleted at 4°C at 7600 x g for 10 minutes. […] Protein was determined by the method of Peterson, Anal. Biochem. 83, 346-356 (1977).
Assay for N-myristoylglycylpeptide synthetase activity. […] Typically, 40% to 50% of the [³H]fatty acid was converted to its CoA ester by this procedure as measured by determining the radioactivity remaining in the reaction after acidification with 6 N HCl to pH 2.0 and extraction 6 times with 5 volumes of heptane, a modification of the method of Hosaka et al., Meth. […] (Under these conditions, 95% of synthetic [³H]myristoylpeptide or [³H]palmitoylpeptide remined soluble when added to an assay mixture.) Fifty microliters of the supernatant were mixed with 75 µl methanol and 75 µl of HPLC buffer A, and analyzed by reverse phase HPLC on a 3.9 mm by 30 cm Waters µ-Bondapak C₁₈ column using the same HPLC buffers described above, starting at 35% acetonitrile and eluting with a 1% per minute acetonitrile gradient. […]

Experiment [2] concerns the target T2, N-myristoylglycylpeptide synthetase (N-myristoyl transferase or NMT) (Saccharomyces cerevisiae, UniProt P14743).
T2 construct: endogenous in cells; host or cells: S. cerevisiae strain JR153
T2 sequence (P14743 1-455): T1 sequence (P14743 1-455)
In words: Octapeptide substrate specificity / kinetic characterization with partially purified yeast myristoylating enzyme (Table II). Type of experiment: biochemical. The procedure:
The synthetic octapeptides I and II were initially used to identify a unique enzymatic activity which transfers myristic acid to the amino terminal glycine of this and other peptides. […] The enzyme activity was determined in an in vitro assay which measures the transfer of [³H]-myristic acid to the acceptor peptide, […]. The transfer reaction is dependent on adenosine triphosphate (ATP) and coenzyme A (CoA). The enzymatic product was then identified by high performance liquid chromatography (HPLC) by co-elution with a chemically synthesized myristoyl peptide standard. […] Both contained M-myristoyl glycine.
Assay for N-myristoylglycylpeptide synthetase activity. [³H]Fatty acyl CoA was synthesized enzymatically and added to the incubation as follows. […] Typically, 40% to 50% of the [³H]fatty acid was converted to its CoA ester by this procedure as measured by determining the radioactivity remaining in the reaction after acidification with 6 N HCl to pH 2.0 and extraction 6 times with 5 volumes of heptane, a modification of the method of Hosaka et al., Meth. […] One minute fractions were collected and the radioactivity in each fraction determined by liquid scintillation counting. […]

On to GPRP, for which, in experiment [1], the “Rate of Myristoylpeptide Synthesis” value was determined as 25.6 DPM x 10⁻³ /10 min. Consider “GNAAKARR-NH2 [Gly-Asn-Ala-Ala-Lys-Ala-Arg-Arg]”, for which the affinity in experiment [2], expressed as Ki, was 50 µM.

In experiment [2], “GNANSARR-NH2 [Gly-Asn-Ala-Asn-Ser-Ala-Arg-Arg]” registered a Ki of 0.3 µM. As to “GSSKSPKDPS [a decapeptide containing N-terminal glycine]”, the “Rate of Myristoylpeptide Synthesis” value in experiment [1] came out at 27.4 DPM x 10⁻³ /10 min.

The Ki is a measure of affinity in units of concentration, obtained from inhibition or displacement.
